Assay results as given in patent US12473262B2, “Aryl hydrocarbon receptor activators” (Oregon State University, priority 2019, dated 2025).

Molecular target: aryl hydrocarbon receptor (AhR) (Mus musculus (Mouse), UniProt P30561)
Experiment: AhR ligand screening: AhRE-luciferase reporter in transfected Hepa1 cells
Assay type: cell-based
Details: for Fold @ 1 nM: fold change of luciferase expression at 1 nM test compound relative to vehicle (0.1% DMSO); for Fold @ 100 nM: fold change of luciferase expression at 100 nM test compound relative to vehicle (0.1% DMSO); for Fold @ 10 uM: fold change of luciferase expression at 10 uM test compound relative to vehicle (0.1% DMSO); for Fold relative to benchmark @ 100 nM: luciferase expression at 100 nM test compound relative to 100 nM benchmark compound 11-cl-BBQ
Description: The AhR is a ligand-activated transcription factor that dimerizes with ARNT to regulate gene expression, and genes that are regulated by AhR ligands have AhR response elements (AhRE) in their promotor regions.
Briefly, Hepa1 cells were transfected with a reporter construct consisting of AhRE linked to luciferase. The addition of AhR ligands to the transfected cells induces luciferase production that is directly proportional to the amount of AhR activation. We used this reporter system to identify novel compounds with AhR-activating properties. Transfected Hepa1 cells were plated at a density of 1×10^4 cells/well in 100 μL of cell culture media in 96 well plates and grown overnight. […] Following incubation with the compounds, the media was removed, and cells were harvested with lysis buffer. The lysates were transferred to opaque 96 well plates, where they were assayed well-by-well for luciferase activity by injection of luciferase assay substrate with a 2 sec mixing time and 15 sec integration period on a Tropix TR717 microplate luminometer. Data were expressed as fold induction of luciferase relative to vehicle (0.1% DMSO) treated cells.

Sequence of aryl hydrocarbon receptor (AhR) (P30561 10-805): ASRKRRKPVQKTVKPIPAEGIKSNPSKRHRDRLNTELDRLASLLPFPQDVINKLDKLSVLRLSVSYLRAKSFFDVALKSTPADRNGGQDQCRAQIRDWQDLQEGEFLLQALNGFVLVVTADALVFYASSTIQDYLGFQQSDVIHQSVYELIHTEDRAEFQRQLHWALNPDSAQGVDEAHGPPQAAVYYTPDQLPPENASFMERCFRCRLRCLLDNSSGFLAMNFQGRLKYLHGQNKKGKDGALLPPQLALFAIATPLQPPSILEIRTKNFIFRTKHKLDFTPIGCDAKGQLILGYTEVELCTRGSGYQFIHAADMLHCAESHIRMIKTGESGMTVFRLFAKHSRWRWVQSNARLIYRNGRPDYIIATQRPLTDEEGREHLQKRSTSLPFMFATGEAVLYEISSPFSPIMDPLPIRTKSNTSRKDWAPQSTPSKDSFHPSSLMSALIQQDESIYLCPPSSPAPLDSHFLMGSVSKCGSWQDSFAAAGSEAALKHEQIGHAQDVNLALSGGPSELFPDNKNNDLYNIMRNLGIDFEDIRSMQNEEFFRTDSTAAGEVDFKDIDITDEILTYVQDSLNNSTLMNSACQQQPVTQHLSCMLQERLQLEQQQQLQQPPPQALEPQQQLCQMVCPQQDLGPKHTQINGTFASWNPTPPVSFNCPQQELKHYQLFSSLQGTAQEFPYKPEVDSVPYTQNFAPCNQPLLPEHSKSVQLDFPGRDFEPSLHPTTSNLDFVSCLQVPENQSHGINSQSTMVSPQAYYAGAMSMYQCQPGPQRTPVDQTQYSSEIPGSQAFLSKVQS
Sequence of aryl hydrocarbon receptor (AhR) (P53762 whole entry partner): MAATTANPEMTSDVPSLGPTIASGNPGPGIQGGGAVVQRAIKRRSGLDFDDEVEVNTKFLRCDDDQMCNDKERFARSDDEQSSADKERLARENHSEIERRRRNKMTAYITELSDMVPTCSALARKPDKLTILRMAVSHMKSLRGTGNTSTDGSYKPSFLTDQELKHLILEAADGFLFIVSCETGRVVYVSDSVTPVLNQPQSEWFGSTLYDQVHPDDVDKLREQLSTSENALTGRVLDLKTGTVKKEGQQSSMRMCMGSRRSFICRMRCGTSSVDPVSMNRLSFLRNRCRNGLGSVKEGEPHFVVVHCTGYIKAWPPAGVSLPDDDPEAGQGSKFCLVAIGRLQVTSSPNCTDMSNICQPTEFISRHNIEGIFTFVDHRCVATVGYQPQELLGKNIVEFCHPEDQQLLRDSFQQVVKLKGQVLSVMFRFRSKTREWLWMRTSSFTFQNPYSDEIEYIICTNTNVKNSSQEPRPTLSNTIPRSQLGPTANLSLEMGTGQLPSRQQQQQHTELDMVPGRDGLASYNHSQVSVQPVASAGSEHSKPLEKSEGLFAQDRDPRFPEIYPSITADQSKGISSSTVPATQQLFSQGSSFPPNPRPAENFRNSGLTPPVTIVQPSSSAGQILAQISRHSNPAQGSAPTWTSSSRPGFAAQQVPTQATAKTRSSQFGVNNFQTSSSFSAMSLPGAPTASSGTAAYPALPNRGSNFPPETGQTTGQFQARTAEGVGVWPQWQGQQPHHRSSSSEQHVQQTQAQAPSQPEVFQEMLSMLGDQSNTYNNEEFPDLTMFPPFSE

SMILES | Fold @ 1 nM | Fold @ 100 nM | Fold @ 10 uM | Fold relative to benchmark @ 100 nM
O=C(c1ccc2c(c1)nc(-c1cccc3ccccc13)n2S(=O)(=O)c1cccc(F)c1)N1CCOCC1 [Compound 1356] | 1 fold | 1 fold | 1 fold | 0.03 fold
COC(=O)c1ccc2nc(-c3cccc4ccccc34)n(Cc3ccc(F)c(F)c3)c2c1 [Compound 1339] | 1 fold | 1 fold | 4 fold | 0.03 fold
CC1(O)c2cccc3cccc(c23)-c2nc3ccccc3n21 (centres unmarked) [Compound 525, 7-methyl-7H-benzo[de]benzo[4,5]imidazo[2,1-a]isoquinolin-7-ol] | 1 fold | 5.6 fold | 20 fold | 0.4 fold
O=C(c1ccc2c(c1)nc(-c1cccc3ccccc13)n2Cc1cccc2ccccc12)N1CCOCC1 [Compound 1408] | 1 fold | 1 fold | 4 fold | 0.03 fold
O=C(c1ccc2c(c1)nc(-c1cccc3ccccc13)n2S(=O)(=O)c1ccc2ccccc2c1)N1CCOCC1 [Compound 1363] | 1 fold | 1 fold | 4 fold | 0.03 fold
O=C(c1ccc2nc(-c3cccc4ccccc34)n(Cc3cccc4ccccc34)c2c1)N1CCOCC1 [Compound 1409] | 1 fold | 1 fold | 4 fold | 0.03 fold
O=C(c1ccc2nc(-c3cccc4ccccc34)n(S(=O)(=O)c3ccc(C(F)(F)F)cc3)c2c1)N1CCOCC1 [Compound 1370] | 1 fold | 1 fold | 4 fold | 0.03 fold
O=C(c1cnc2ccccc2c1)n1c(-c2cccc3ccccc23)nc2cc(Cl)ccc21 [Compound 855] | 1 fold | 33 fold | 44 fold | 1.14 fold
O=c1c2cccc3cccc(c32)c2nc3ccc(Cl)cc3n12 [Compound 363, 7-chloro-3,10-diazapentacyclo[10.7.1.0^2,10.0^4,9.0^16,20]icosa-1(19),2,4(9),5,7,12,14,16(20),17-nonaen-11-one] | 4 fold | 14 fold | 30 fold | 0.69 fold
Clc1ccc2c(c1)nc(-c1cccc3ccccc13)n2Cc1ccccc1 [Compound 533, 1-benzyl-5-chloro-2-(naphthalen-1-yl)-1H-benzimidazole] | 1 fold | 1 fold | 13 fold | 0.03 fold
CN1CCN(C(=O)c2ccc3c(c2)nc(-c2cccc4ccccc24)n3Cc2ccc(F)c(F)c2)CC1 [Compound 1364] | 1 fold | 1 fold | 3 fold | 0.03 fold
COC(=O)c1ccc2nc(-c3cccc4ccccc34)n(C(=O)c3ccc(OC(F)(F)F)cc3)c2c1 [Compound 1405] | 1 fold | 2 fold | 30 fold | 0.07 fold
O=C(c1cnc2ccccc2c1)n1c(-c2cccc3ccccc23)nc2ccc(Cl)cc21 [Compound 856] | 1 fold | 38 fold | 46 fold | 1.31 fold
O=C(c1ccccc1)n1c(-c2cc3ccccc3o2)nc2ccc(Cl)cc21 [Compound 588] | 1 fold | 5 fold | 30 fold | 0.33 fold
O=C(c1ccc2nc(-c3cccc4ccccc34)n(S(=O)(=O)c3ccc4ccccc4c3)c2c1)N1CCOCC1 [Compound 1389] | 1 fold | 1 fold | 3 fold | 0.03 fold
O=C(c1ccc(F)c(F)c1)n1c(-c2ccccc2-c2ccccc2)nc2cc(Cl)ccc21 [Compound 766] | 1 fold | 2 fold | 31 fold | 0.08 fold
N#Cc1ccc(S(=O)(=O)n2c(-c3cccc4ccccc34)nc3ccc(C(=O)N4CCCCC4)cc32)cc1 [Compound 1337] | 1 fold | 1 fold | 8 fold | 0.03 fold
O=C(c1ccccc1)n1c(-c2cccc3ccccc23)nc2cc(F)ccc21 [Compound 583] | 1 fold | 5 fold | 7 fold | 0.33 fold

More lines, now with the values ahead:

Fold @ 1 nM | Fold @ 100 nM | Fold @ 10 uM | Fold relative to benchmark @ 100 nM | SMILES
1 fold | 1 fold | 4 fold | 0.03 fold | COC(=O)c1ccc2c(c1)nc(-c1cccc3ccccc13)n2Cc1ccc(Cl)cc1 [Compound 1406]
1 fold | 1 fold | 2 fold | 0.04 fold | CC(C)(C)c1cccc(-c2nc3cc(Cl)ccc3n2C(=O)c2ccccc2)c1 [Compound 790]
1 fold | 1 fold | 26 fold | 0.04 fold | Cc1cccc(-c2nc3cc(Cl)ccc3n2C(=O)c2ccc(F)c(F)c2)c1Cl [Compound 791]
1 fold | 1 fold | 14 fold | 0.03 fold | O=C(c1ccccc1)n1c(-c2ccc(F)cc2)nc2cc(Cl)ccc21 [Compound 492]
1 fold | 24 fold | 31 fold | 0.92 fold | O=C(c1ccc(SC(F)(F)F)cc1)n1c(-c2cccc3ccccc23)nc2cc(Cl)ccc21 [Compound 686]
1 fold | 22 fold | 33 fold | 0.88 fold | O=C(c1ccc2c(c1)OCCO2)n1c(-c2cccc3ccccc23)nc2cc(Cl)ccc21 [Compound 850]
1 fold | 26 fold | 30 fold | 1 fold | Cc1ccc(C(=O)n2c(-c3cccc4ccccc34)nc3ccc(Cl)cc32)cc1 [Compound 698]
1 fold | 12 fold | 68 fold | 0.41 fold | O=C(c1ccc(F)c(F)c1)n1c(-c2ccc(Cl)c3ccccc23)nc2cc(Cl)ccc21 [Compound 869]
1 fold | 2 fold | 6 fold | 0.08 fold | O=C(c1ccccc1)n1c(-c2cccc3c2CCCC3)nc2cc(Cl)ccc21 [Compound 777]
1 fold | 23 fold | 22 fold | 0.88 fold | Cc1ccc(C(=O)n2c(-c3cccc4ccccc34)nc3cc(Cl)ccc32)cc1 [Compound 697]
1 fold | 23 fold | 30 fold | 0.88 fold | O=C(c1ccc(F)cc1F)n1c(-c2cccc3ccccc23)nc2cc(Cl)ccc21 [Compound 695]
1 fold | 2 fold | 18 fold | 0.04 fold | O=C(c1ccc(OC(F)(F)F)cc1)c1c[nH]c2ccc(Cl)cc12 [Compound 881]
1 fold | 2 fold | 34 fold | 0.07 fold | O=C(c1ccccc1)n1c(-c2ccc(F)c3ccccc23)nc2cc(Cl)ccc21 [Compound 863]
1 fold | 3 fold | 8 fold | 0.12 fold | O=C(c1ccccc1)n1c(-c2cccc(C(F)(F)F)c2)nc2ccc(Cl)cc21 [Compound 789]
1 fold | 1 fold | 14 fold | 0.07 fold | O=C(c1ccccc1)n1c(-c2ccc(F)c(Cl)c2)nc2cc(Cl)ccc21 [Compound 582]
1 fold | 26 fold | 34 fold | 1 fold | COc1ccc(C(=O)n2c(-c3cccc4ccccc34)nc3ccc(Cl)cc32)cc1OC [Compound 683]
1 fold | 1 fold | 2 fold | 0.02 fold | Cc1ccc(C(=O)c2c[nH]c3ccc(Cl)cc23)cc1 [Compound 882]
1 fold | 1 fold | – | 0.04 fold | COc1ccc(C(=O)n2c(-c3cccc4ccccc34)nc3cc(C)ccc32)cc1 [Compound 702]
